Entries after “also recorded” stand apart in the source; their conditions may differ. Like-named read-outs stand apart in the source and are kept apart here.
Experiments:
[1] = test system: primary chick cortical neurons; experiment: Phosphoinositide hydrolysis assay (InsP3 production) in cultured primary cortical neurons; assay type: cell-based; settings: Gallus gallus, Cortical neurone, 20 min, read-out: Ins-P-n
Procedure: The neurons were seeded in 24-well plastic tissue culture plates that had been coated with L-polylysine.
Receptor-stimulated and basal unstimulated hydrolysis of phosphoinositides was measured by the following procedure. […] The cells were then washed twice with 1 ml Dulbecco's phosphate-buffered saline (PBS) and 0.5 ml of PBS containing 4.5 g/L glucose was added. Sphingosine, psychosine, lysosulphatide, or lysosphingomyelin, prepared as the hydrochloride salt dissolved in water, were then added to produce the desired extracellular concentration in specific wells, […] The cells were then washed twice with 1 ml PBS, and pre-incubated for 15 minutes at 37°C with 0.5 ml PBS containing 10 mM LiCl and the compound to be tested was added. […] The tubes were vortexed thoroughly, then centrifuged at 500 x g for 5 minutes to separate the aqueous and chloroform phases. For each sample, a 1.5-ml aliquot of the upper (aqueous) phase was applied to a small column containing BioRad AG1X8 resin (formate form). Free [^3H]inositol and [^3H]glycerophosphoinositol were washed through the column with 5 ml of a solution containing 5 mM sodium borate and 60 mM sodium formate. The total phosphorylated [^3H] inositol fraction was eluted from the column for radiometric scintillation spectrometry analysis with 3 ml 1.0 M ammonium formate/0.1 M formic acid.
In addition, a 0.5 ml aliquot of the lower (chloroform) phase of each sample was analyzed radiometrically by scintillation spectrometry in order to determine the quantity of lipid-bound [^3H]myo-inositol. Estimation of phosphoinositide hydrolysis by phospholipase C is based upon the quantity of [^3H]inositol phosphates produced, and is expressed as the percentage of the latter relative to total free and componential [^3H]inositol (dpm ammonium formate + dpm chloroform fractions).

[2] = Behavioral analysis after ICV infusion (quisqualate excitotoxicity model); assay type: in vivo, rats; settings: rat, in vivo, icv or intrathecal, rats
Procedure: (§1) The animals used in this experiment were male F344 rats (Charles River Breeding Laboratories). The animals were housed individually, exposed to a 12-hour light-dark cycle, and allowed free access to food and water. The animals weighed approximately 250 g at the beginning of each experiment and were weighed daily. In addition, the animals were habituated to handling before each experiment.
(§2) Before administering various compounds, the animals were anesthetized with sodium pentobarbital (50 mg/kg, i.p.) and positioned in a sterotaxic instrument. A 26 gauge cannula was inserted into the cerebral ventricle at the following co-ordinates: 1.0 mm posterior to bregma, 1.5 mm lateral to the midline, and 4.0 mm below the dorsal surface of the neocortex. Cannulas were capped and fixed in place with dental cement. One week after cannulation, 10 µl of each of the treatment drugs was infused, ICV (i.e. into the ventricals of the brain), via a micropump at a rate of 10 µl/min. For this procedure, the animals were lightly restrained and unanesthetized. Following administration of the compound, the infusion cannula remained in position for one minute, after which the permanent in situ cannula was capped.
(§3) The compounds administered were obtained from a commercial supplier (Sigma Chemical Co., St. Louis, MO) and dissolved in saline prior to injection. These compounds included quisqualate (injected at doses ranging from 100 nmole/10 µl to 1 µmole/10 µl), lysocerebroside, and lysophingomyelin (which were injected at doses of 25 nmoles/10 µl to 150 nmoles/10 µl).
(§4) Pilot studies identified several specific behavioral measures that could be used to indicate excessive activation of the metabotropic receptor (see Table 3). […] The experiments that follow were based on an analysis of these behaviors over a two hour period after administration of the compounds of the invention. Behavioral observation was carried out by two trained observers, who worked independently of one another and who were blind to the experimental groups. […] Frequency and duration means were computed by subtracting pre-infusion means from post-infusion means.
(§5) The experiment began one week after ICV cannulation. […] Following the baseline observation period, animals received the first of two ICV infusions (all infusions were of a 10 µl volume that was administered over a 1 minute period). For the first five groups listed above, this consisted of saline (10 µl/minute), for the following 3 groups the infusions were psychosine at 125 nmoles, lysosphingomyelin at 125 nmoles, or lysosphingomyelin at 150 nmoles, respectively. Thirty minutes later, all animals received the second infusion which, for the first five groups listed above, consisted of saline, quisqualate at 225 nmoles, psychosine at 125 nmoles, lysosphingomyelin at 125 nmoles, and lysosphingomyelin at 150 nmoles respectively. […] Following the second infusion animals were returned to their cages, and observed continuously over the subsequent 2 hours.

[3] = test system: male F344 rats; experiment: as above; assay type: in vivo
Procedure: as §1, §2, §3, §4, §5

[4] = test system: hippocampal neurons; experiment: Histological analysis of brain (cresyl violet) seven days after ICV infusion; assay type: in vivo; settings: Quisqualate 500 µmoles ICV, rats
[5] = test system: hippocampal neurons; experiment: as above; assay type: in vivo, rats
Procedure: as §1, §2, §3
Seven days after the compounds were administered, animals were sacrificed by transcardial perfusion with neutralized, buffered 10% formalin-saline. Their brains were removed, post-fixed overnight in 10% formalin-saline, and sectioned along the coronal plane (into 50 µm thick sections) on a freezing microtome. The sections were stained with cresyl violet to determine the extent of cellular destruction. […]
Given that high concentrations of metabotropic receptors are located in the hippocampus, and that the hippocampus is particularly vulnerable to the effects of a variety of insults including ischemia and hypoxia, this region was examined for evidence of neuronal degeneration due to glutamate excitoxicity.

Work on `N[C@@H](Cn1oc(=O)[nH]c1=O)C(=O)O` [Quisqualate, quisqualate] yielded a fold induction at 100 µM [1] of 3 ± 0.05, a mortality ([2]; 225 nmol, Quisqualate 225 nmoles ICV, read-out: death, cases) of 60% and a mortality ([2]; 250 nmol, Quisqualate 250 nmoles ICV, read-out: death, cases) of 75%. The mortality ([2]; Quisqualate 1 µmoles ICV, read-out: dead, cases) was 100%, the “effective dose (to produce behavioral and histological changes)” value ([3]; ICV, rats, pilot testing) was 225 nmoles and the BEHAVIOR ([3]; Quisqualate 100 nmoles ICV, rats, reflex score 0 normal, 3 severely abnormal) was “-teeth chatter; also recorded: -mild scratching; also recorded: -hind leg weakness 60 minutes; also recorded: -normal placement and clasp reflex (0)”. The BEHAVIOR ([3]; Quisqualate 150 nmoles ICV, rats, reflex score 0 normal, 3 severely abnormal) was “-teeth chatter; also recorded: -localized twitches; also recorded: -mild hyperactivity walking in circles; also recorded: -hind leg weakness for 60 minutes; also recorded: -normal placement and clasp reflex (0)”, the BEHAVIOR ([3]; Quisqualate 150 nmoles ICV, rats, reflex score 0 normal, 3 severely abnormal, listed as quisqualate) was “an increase in activity and teeth chattering” and the BEHAVIOR ([3]; Quisqualate 200 nmoles ICV, rats, reflex score 0 normal, 3 severely abnormal) was “-teeth chatter; also recorded: -occasional mild convulsions; also recorded: -hyperactivity - circle walking; also recorded: -episodic akinesia/tonic immobility; also recorded: -hind leg weakness; also recorded: -normal limb clasp and placement reflex (0)”. For the same compound, the “death, cases” value ([3]; Quisqualate 225 nmoles ICV, rats) was “-death in 60% of cases”, the BEHAVIOR ([3]; Quisqualate 225 nmoles ICV, rats, reflex score 0 normal, 3 severely abnormal) was “moderate convulsions” and the BEHAVIOR ([3]; Quisqualate 250 nmoles ICV, rats, reflex score 0 normal, 3 severely abnormal) was “-localized spasms jerking/twitching; also recorded: -full body convulsions-severe/repeated; also recorded: -foaming at mouth; also recorded: -respiratory distress; also recorded: -abnormal placement and clasp reflex (3); also recorded: -vocalization; also recorded: -teeth chattering; also recorded: -scratching”. For the same compound, the BEHAVIOR ([3]; Quisqualate 250 nmoles ICV, rats, reflex score 0 normal, 3 severely abnormal, listed as quisqualate) was “severe convulsions and death”, the BEHAVIOR ([3]; Quisqualate 1 µmoles ICV, rats) was “-severe repeated full body convulsions; also recorded: -severe scratching; also recorded: -severe teeth chattering; also recorded: -foaming at mouth” and the time to death ([3]; Quisqualate 1 µmoles ICV, rats) was 5 to 15 min. The BEHAVIOR ([3]; Quisqualate 500 µmoles ICV, rats) was “vocalization”, the “duration of teeth chattering, akinesia and mobilization” value ([3]; quisqualate alone 225 nmoles vs lysosphingolipids alone and vs quisqualate 225 nmoles + lysophingomyelin 150 nmoles, Fig. 9) was “significantly (p< .01) more time engaged in these behaviors” and the number of convulsions/spasms ([3]; quisqualate alone at 225 nmoles ICV compared to all other groups, 2 hours observation, Fig. 8) was “significantly (p.<01) more convulsions/spasms”. The “HISTOLOGICAL CHANGES” value [4] was “loss of neurons in the piriform and entorhinal cortex. CA1 and dentate gyrus regions of the hippocampus”, the “HISTOLOGICAL CHANGES” value ([5]; Quisqualate 100 nmoles ICV, rats) was “none observed” and the “HISTOLOGICAL CHANGES” value ([5]; Quisqualate 150 nmoles ICV, rats) was “none observed”. The “HISTOLOGICAL CHANGES” value ([5]; Quisqualate 225 nmoles ICV, rats, seven days after) was “loss of CA1 pyramidal neurons in the hippocampus”, the “HISTOLOGICAL CHANGES” value ([5]; Quisqualate 225 nmoles ICV, rats, seven days after, listed as quisqualate) was “severe loss of neurons in the hippocampus; also recorded: a considerable loss of CA1 pyramidal neurons in the hippocampus” and the “HISTOLOGICAL CHANGES” value ([5]; Quisqualate 250 nmoles ICV, 'as above' = loss of neurons in the piriform and entorhinal cortex, CA1 and dentate gyrus regions of the hippocampus, listed as quisqualate) was “severe loss of neurons in the hippocampus”.

Source: patent EP1488698A1, “Compositions for descreasing intracellular inositol trisphosphate concentration and uses thereof” (priority 1995, dated 1997)
